According to ChEMBL document CHEMBL2021801, “Thienopyridine ureas as dual inhibitors of the VEGF and Aurora kinase families” (Bioorg Med Chem Lett, 2012):

Columns and labels:
HT-1080 = assay: Antitumor activity against human HT1080 cells xenografted in mouse assessed as tumor growth inhibition at 10 mg/kg, po qd; format: functional; conditions: read-out: GI
[1] = Half life in CD1 (ICR) mouse at 3 mg/kg, iv; format: ADME, organism-based; design: dose 3 mg/kg, route intravenous; conditions: in vivo
Mus musculus = assay: In vivo inhibition of KDR in po dosed mouse assessed as estradiol-induced uterine edema; format: functional
[2] = AUC in CD1 (ICR) mouse at 10 mg/kg, po; format: ADME, organism-based; design: dose 10 mg/kg, route oral; conditions: plasma
[3] = Oral bioavailability in CD1 (ICR) mouse at 10 mg/kg; format: ADME, organism-based; conditions: in vivo
[4] = Volume of distribution in CD1 (ICR) mouse at 3 mg/kg, iv; format: ADME, organism-based; design: dose 3 mg/kg, route intravenous; conditions: in vivo
Aurora kinase B [5] = molecular target: T1, Aurora kinase B (Homo sapiens, UniProt Q96GD4); conditions: NCI-H1229
[6] = Clearance in CD1 (ICR) mouse at 3 mg/kg, iv; format: ADME, organism-based; design: dose 3 mg/kg, route intravenous; conditions: in vivo
[7] = molecular target: T2, Vascular endothelial growth factor receptor 2 (Homo sapiens, UniProt P35968); assay: Inhibition of KDR using 1 mM ATP by HTRF assay
Aurora kinase B [8] = molecular target: T1, Aurora kinase B; assay: Inhibition of Aurora B using 1 mM ATP by HTRF assay
Cytochrome P450 3A4 = Cytochrome P450 3A4 (Homo sapiens, UniProt P08684); assay: Inhibition of CYP3A4 up to 10 uM; format: ADME
[9] = molecular target: T2, Vascular endothelial growth factor receptor 2; assay: Inhibition of human KDR phosphorylation expressed in mouse NIH3T3 cells; format: cell-based

T2 sequence (P35968 whole entry): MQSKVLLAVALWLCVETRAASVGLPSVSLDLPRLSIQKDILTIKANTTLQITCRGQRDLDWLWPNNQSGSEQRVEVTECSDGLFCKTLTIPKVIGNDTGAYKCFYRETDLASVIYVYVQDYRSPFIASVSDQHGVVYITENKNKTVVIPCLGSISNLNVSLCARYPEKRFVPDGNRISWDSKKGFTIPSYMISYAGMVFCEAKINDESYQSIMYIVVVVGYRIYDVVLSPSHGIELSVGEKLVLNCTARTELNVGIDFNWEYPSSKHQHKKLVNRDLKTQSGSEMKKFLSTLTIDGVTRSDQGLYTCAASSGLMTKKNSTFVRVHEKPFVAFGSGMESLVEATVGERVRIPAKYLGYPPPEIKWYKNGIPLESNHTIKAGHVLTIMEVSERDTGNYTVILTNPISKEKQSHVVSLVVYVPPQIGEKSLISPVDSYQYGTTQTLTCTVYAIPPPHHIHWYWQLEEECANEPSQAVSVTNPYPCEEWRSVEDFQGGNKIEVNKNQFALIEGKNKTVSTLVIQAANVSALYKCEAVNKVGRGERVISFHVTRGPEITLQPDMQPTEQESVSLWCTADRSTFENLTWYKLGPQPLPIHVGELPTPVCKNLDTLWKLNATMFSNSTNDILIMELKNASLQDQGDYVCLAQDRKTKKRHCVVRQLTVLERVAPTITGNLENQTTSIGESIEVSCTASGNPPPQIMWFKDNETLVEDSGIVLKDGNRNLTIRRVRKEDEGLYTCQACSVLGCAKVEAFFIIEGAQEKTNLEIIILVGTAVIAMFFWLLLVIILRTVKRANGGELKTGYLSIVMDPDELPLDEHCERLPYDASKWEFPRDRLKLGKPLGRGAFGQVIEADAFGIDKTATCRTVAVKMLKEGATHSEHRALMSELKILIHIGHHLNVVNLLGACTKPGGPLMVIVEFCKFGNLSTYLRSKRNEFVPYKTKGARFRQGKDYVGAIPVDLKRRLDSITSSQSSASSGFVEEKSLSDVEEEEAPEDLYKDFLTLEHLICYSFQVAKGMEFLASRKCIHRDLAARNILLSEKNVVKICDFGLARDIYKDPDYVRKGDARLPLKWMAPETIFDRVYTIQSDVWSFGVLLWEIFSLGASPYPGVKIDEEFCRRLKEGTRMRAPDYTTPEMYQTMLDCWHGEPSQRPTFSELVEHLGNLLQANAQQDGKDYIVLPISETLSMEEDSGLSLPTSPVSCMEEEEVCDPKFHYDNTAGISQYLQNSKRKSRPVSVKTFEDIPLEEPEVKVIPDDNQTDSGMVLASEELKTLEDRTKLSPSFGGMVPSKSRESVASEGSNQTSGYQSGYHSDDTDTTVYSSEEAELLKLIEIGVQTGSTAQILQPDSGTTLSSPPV
T1 sequence (Q96GD4 whole entry): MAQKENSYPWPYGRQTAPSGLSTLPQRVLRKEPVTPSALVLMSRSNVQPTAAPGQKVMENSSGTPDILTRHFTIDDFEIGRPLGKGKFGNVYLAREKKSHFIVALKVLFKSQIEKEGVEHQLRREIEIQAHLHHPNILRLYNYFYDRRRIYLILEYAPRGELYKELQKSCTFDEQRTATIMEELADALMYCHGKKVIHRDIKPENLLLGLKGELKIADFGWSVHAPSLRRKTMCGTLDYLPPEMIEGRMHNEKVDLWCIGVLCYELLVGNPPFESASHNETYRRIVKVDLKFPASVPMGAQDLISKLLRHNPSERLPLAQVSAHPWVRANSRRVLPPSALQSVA
Chain of Cytochrome P450 3A4 (P08684 whole entry): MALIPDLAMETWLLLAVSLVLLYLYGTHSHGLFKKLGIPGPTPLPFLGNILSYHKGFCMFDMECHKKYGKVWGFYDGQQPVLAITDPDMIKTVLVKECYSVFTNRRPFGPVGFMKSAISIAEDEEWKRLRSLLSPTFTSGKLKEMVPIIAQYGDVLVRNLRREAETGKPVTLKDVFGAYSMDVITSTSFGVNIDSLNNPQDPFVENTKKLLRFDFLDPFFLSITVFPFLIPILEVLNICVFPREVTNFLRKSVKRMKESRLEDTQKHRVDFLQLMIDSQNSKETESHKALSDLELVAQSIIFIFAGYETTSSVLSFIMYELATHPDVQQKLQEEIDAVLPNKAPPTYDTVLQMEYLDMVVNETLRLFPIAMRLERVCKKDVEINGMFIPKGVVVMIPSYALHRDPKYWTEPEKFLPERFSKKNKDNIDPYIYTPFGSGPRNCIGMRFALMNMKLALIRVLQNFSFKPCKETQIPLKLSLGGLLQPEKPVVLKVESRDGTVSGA

| Structure (SMILES) | half-life [1] [h] | AUC [2] [ng·h/mL] | bioavailability [3] [%] | Vd [4] [L/kg] | EC15 (Aurora kinase B [5]) [nM] | clearance [6] [mL/min/kg] | IC50 [7] [nM] | IC50 (Aurora kinase B [8]) [nM] | inhibition (INH) (Cytochrome P450 3A4) [%] | IC50 [9] [nM] | inhibition in vivo at 10 mg/kg (HT-1080) [%] | ED50 (Mus musculus) [mg/kg] |
| --- | --- | --- | --- | --- | --- | --- | --- | --- | --- | --- | --- | --- |
| Cc1cccc(NC(=O)Nc2ccc(-c3csc4c(-c5cnn(C)c5)cnc(N)c34)cc2)c1 | 1.5 | 5640 | 59 | 2.3 | 55 | 18.3 | – | – | – | – | > 70 | 1 |
| CC(C)CCn1cc(-c2cnc(N)c3c(-c4ccc(NC(=O)Nc5cccc(F)c5)cc4)csc23)cn1 | – | – | – | – | – | – | 25 | 529 | – | – | – | – |
| Cn1cc(-c2cnc(N)c3c(-c4ccc(NC(=O)Nc5cccc(C(N)=O)c5)cc4)csc23)cn1 | – | – | – | – | 413 | – | 2 | 23 | – | – | – | > 10 |
| COc1ccc(NC(=O)Nc2ccc(-c3csc4c(-c5cnn(C)c5)cnc(N)c34)cc2)cc1 | 1.3 | 5220 | 44 | 1.5 | 57 | 15 | 6 | 114 | < 20 | – | – | 1.3 |
| Cc1cccc(NC(=O)Nc2ccc(-c3csc4c(-c5cc[nH]n5)cnc(N)c34)cc2)c1 | – | – | – | – | 161 | – | 6 | 66 | – | 3 | – | – |
| Cc1cccc(NC(=O)Nc2ccc(-c3csc4c(-c5ccccc5)cnc(N)c34)cc2)c1 | – | – | – | – | – | – | – | 3280 | – | – | – | – |
| Cc1cccc(NC(=O)Nc2ccc(-c3csc4c(-c5ccoc5)cnc(N)c34)cc2)c1 | – | – | – | – | > 300 | – | 8 | 100 | – | 14 | – | – |
| CCCn1cc(-c2cnc(N)c3c(-c4ccc(NC(=O)Nc5cccc(F)c5)cc4)csc23)cn1 | 0.8 | 5260 | 52 | 1.2 | 4 | 16.7 | – | 31 | < 20 | – | > 70 | 1.5 |
| CNC(=O)/C=C/c1cnc(N)c2c(-c3ccc(NC(=O)Nc4cccc(C)c4)cc3)csc12 | – | – | – | – | 87 | – | 6 | 80 | – | 22 | – | – |
| Cn1cc(-c2cnc(N)c3c(-c4ccc(NC(=O)Nc5ccc(OC(F)(F)F)cc5)cc4)csc23)cn1 | – | – | – | – | 12 | – | 3 | 17 | – | – | – | 2.6 |

The next lines start with results.

| half-life [1] [h] | AUC [2] [ng·h/mL] | bioavailability [3] [%] | Vd [4] [L/kg] | EC15 (Aurora kinase B [5]) [nM] | clearance [6] [mL/min/kg] | IC50 [7] [nM] | IC50 (Aurora kinase B [8]) [nM] | inhibition (INH) (Cytochrome P450 3A4) [%] | IC50 [9] [nM] | Structure (SMILES) | inhibition in vivo at 10 mg/kg (HT-1080) [%] | ED50 (Mus musculus) [mg/kg] |
| --- | --- | --- | --- | --- | --- | --- | --- | --- | --- | --- | --- | --- |
| – | – | – | – | 141 | – | – | 11 | – | – | Cc1cccc(NC(=O)Nc2ccc(-c3csc4c(C#CCN(C)C)cnc(N)c34)cc2)c1 | – | – |
| – | – | – | – | 1 | – | 6 | 5 | – | – | CN1CCC(n2cc(-c3cnc(N)c4c(-c5ccc(NC(=O)Nc6cccc(F)c6)cc5)csc34)cn2)C1=O (configuration not stated) | – | 0.4 |
| – | – | – | – | < 1 | – | 2 | 2 | – | – | Nc1ncc(-c2cnn(CCCN3CC[C@@H](O)C3)c2)c2scc(-c3ccc(NC(=O)Nc4cccc(F)c4)cc3)c12 | – | – |
| – | – | – | – | 9 | – | 3 | 6 | – | – | Cn1cc(-c2cnc(N)c3c(-c4ccc(NC(=O)Nc5ccccc5)cc4)csc23)cn1 | – | 0.3 |
| – | – | – | – | 4 | – | 1 | 11 | – | – | CS(=O)(=O)CCn1cc(-c2cnc(N)c3c(-c4ccc(NC(=O)Nc5cccc(F)c5)cc4)csc23)cn1 | – | 10 |
| – | – | – | – | 2 | – | 2 | 8 | – | – | Cc1ccccc1NC(=O)Nc1ccc(-c2csc3c(-c4cnn(C)c4)cnc(N)c23)cc1 | – | 3.5 |
